Data set [1] is described as follows: Cell-free in vitro competition test for Fe(III) versus antinutrients. It counts as physicochemical. As to conditions: for recovery of Fe as 1:3 Fe-ligand complex in competition with non-cathecolic polyphenols (avg.): average; for recovery of Fe as 1:3 Fe-ligand complex in competition with non-cathecolic polyphenols (avg.) / recovery of Fe as 1:3 Fe-ligand complex in competition with oxalates / recovery of Fe as 1:3 Fe-ligand complex in competition with phosphate: vs citrate ref standard of 100% recovery; for recovery of Fe as 1:3 Fe-ligand complex in competition with oxalates / recovery of Fe as 1:3 Fe-ligand complex in competition with phosphate: sequential pH 6/2.5/6.5, CH2Cl2 extract read at 405 nm; for iron competition versus phytate and catecholic polyphenols: without enzymatic co-treatment. As to the method:
The method evaluates the competitive affinity for Fe(III) of maltol/ethyl maltol versus antinutrients, i.e. the iron sequestering agents occurring in food, in a 3-step method which adopts a sequential pH 6/2.5/6.5 mimic the pHs occurring in stomach at fast, during gastro digestion and in duodenum, respectively. Stock solution at 10 mM conc. were prepared by dissolving in water the following reagents: (a) antinutrient series: EDTA (EDTA=negative control), ellagic acid (ELL), gallic acid (GAL), hesperidin (HES), naringin (NAR), monosodium oxalate (OXA), disodium phosphate (PHO), quercetin (QUE), rutin (RUT), tannic acid (TAN), phytic acid sodium salt (PHY); wherein the cathecolic polyphenols (CPP) are presented as pooled (b) maltol (MAL) and ethyl maltol (EMAL); […] In brief, in 15-ml tubes were combined 100 μl of 10 mM FAC (1 μmol); 1 ml of 10 mM CaCl2 (10 μmol); 1 ml of 10 mM 3-hydroxy-4-pyrone (10 μmol); 1 ml of each antinutrient at 10 mM (10 μmol); and 2 ml of water to 5 ml final volume. No antinutrients were introduced in the positive control. Tubes were oscillated at 30 rpm for 2.5 hours, of which: 1 hour at initial pH 6-6.5; 1 hour at pH 2-2.5 (by 50 μl 1N HCl), and final 30 min. at pH around 6.5 (by 50 μl 1N NaOH). The tubes were then added with 2 ml di CH2Cl2 and shacked for 2 min. […] Residues were taken up with 2 ml water and read at 405 nm. Absorbance calibration: r=0.30 and linear correlation within the 40-4 μM range (r2=1; […] on 0-intercept).

Data set [2] can be described thus: In vitro digestion model: extraction of dietary non-heme iron from vegetal foods. As to conditions: for yield of extracted iron from vegetal food: canned soybean, red beans, peas, 1 ml 10 mM, versus water control; for surplus of yields of gastroactive (GA) model over gastropassive (GP) condition: with versus without classic digestive enzymes. The method, then: The method assessed the extraction of dietary non-heme iron by maltol or ethyl maltol in simulated digestion of vegetal foods, with/without digestive enzymes. In brief, samples (10 g) of vegetable foods, viz. canned soybean, red beans and peas were smashed in mortar with 5 ml water. Specimen were combined in 50 ml tubes supplemented with HCl solution (pH 2.5) of mix of classic digestive enzymes consisting in: 2 mg pepsin 1:3000; 0.5 mg lipase 200 FIP/g; and bile enzymes, i.e. 2.5 mg bovine bile extract; 1.25 pancreatin extract 4:1 in “gastroactive” model (“GA”). A parallel test named “gastropassive” use non enzymes. Tube were added with 1 ml maltol/ethyl maltol 10 mM, or water in control, and underwent 2 hours of slow motion (60 o/min) at controlled temperature. The pH was finally adjusted to 6-7 (1N NaOH) and the tubes remained on oscillation for further 30 min. The digests were collected, filtered at 100 μm mesh, diluted and read at 405 nm. Results expressed as % recovery of Fe calculated against a calibration curve) are plotted in FIG. 3.

The test system of data set [3] is rodents conducted to anemia by iron starvation. The data set is described as follows: Murine model of anemic therapy (iron-deficient diet). As to conditions: normalized-iron vegetal diet comprising the substance after ID diet, compared to both controls. It is filed as in vivo, female Wistar rats. As to the method:
This in vivo murine study sized the capacity of maltol/ethyl maltol compounded into food to enhance iron uptake in rodents conducted to anemia by iron starvation. For that purpose, 6-wk old female Wistar rats were fed for 28 days a iron-deficient diet (Fe:12 mg/kg), labeled IDD1. A control group received standard diet (Fe:45 mg/kg) (Ctrl1) along the entire experiment. In the second stage, IDD1 rats were randomized for 26 days test diets conceived as follows: the M3 and EM3 groups received cookies with 3% of maltol or 3% ethyl maltol, respectively. The M/EMO group was fed with cookies without maltol/ethyl maltol; while the IDD2 group was maintained at Fe-deficient diet. […] Cookies were produced from corn flour and vegetal fat, and backed at 180° C. for 15 minM, whereas in M3 and EM3 groups a portion (3%) of corn flour was replaced with maltol and ethyl maltol. Animals were kept in room with 12 h light/dark cycle, temperature of 24° C. […], and drinking water ad libitum. […] Serum iron was measured at 623 nm, haemoglobin content (Hb) total iron binding capacity (TIBC), erythrocytes, haemoglobin (Hb), hematocrit (Ht), mean corpuscular volume (MCV), mean corpuscular haemoglobin (MCH), and MCH concentration (MCHC) assessed according to Regula et al. Ann Agric Environ Med 2016;23(2):310-4. Iron transferrin saturation (TSAT) was calculated by the formula: TSAT=(Fe/TIBC)×[…].

The next data set relates to Caco-2 cells. The data set is described as follows: Caco-2 monolayer absorption: ferritin formation. As to conditions: 1 h contact at 37° C., 23 h re-incubation; Fe 200 μM.
The conditions of data set [4]: pH 6.
Procedure: (§1) (a) maltol (MAL) and ethyl maltol (EMAL) at 10 mM concentration;
(§2) (c) iron sources: FAC (Fe^III) and ferrous sulfate (FS, Fe^III) at 1:10 eq/eq with respect to AA, at 1:20 eq/eq with respect to CA, and at 1:5 eq/eq with respect to MAL.
(§3) The final Fe concentration was fixed 200 μM with the other molar ratio as listed above, while the solution were then neutralized to pH 6-7.
Total iron was determined by inductively-coupled plasma optical emission spectrometry, where both ICP-OES standards and samples were diluted in 0.5% HNO3 in 0-1000 ppb range. Physical classification of iron was assessed after centrifugation (10,000×g, 5 min.), the supernatant was ultrafiltrated with 3kDa MWCO filter 10,000×g, 10 min. Phase distribution was calculated as: iron microparticulate (total Fe−Fe in supernatant), iron nanoparticulate (Fe ultrafiltrate−Fe in supernatant) and soluble iron (Fe ultrafiltrate/total Fe).
Data set [5] has as its system inflammatory bowel disease. As to conditions: animal model of IBD; Minaiyan et al. 2012; cited from earlier work.

Procedure for Caco-2 cells: Caco-2 cells cultivated and used at passages 24-50 in culture medium, serum-free MEM, were exposed to test substances in culture medium.
as §1, §2, §3
One hour contact at 37° C. was used for similarity of duodenal contact time. After incubation 1 h the medium was aspirated, cell monolayer washed 3× PBS-EDTA and fresh MEM added. Cells were re-incubated for 23 h to allow ferritin formation, lysed with 400 μl of MPER® lysis buffer, lysate collected, centrifuged for 5′ at 16,000×g, and supernatant collected for analysis. The solutions were filter-sterilized (0.2 μm syringe filter) prior dilution in the culture medium.
Ferritin content of Caco-2 cells was determined by an ELISA kit, results corrected for the baseline values and expressed in relation to total cell protein in ng ferritin/mg cell protein.

Regarding `CCc1occc(=O)c1O` [ethyl maltol], in data set [1], the “recovery of Fe as 1:3 Fe-ligand complex in competition with non-cathecolic polyphenols (avg.)” value was 95%; the “recovery of Fe as 1:3 Fe-ligand complex in competition with oxalates” value turned out to be 89%; the “recovery of Fe as 1:3 Fe-ligand complex in competition with phosphate” value was 98%; the “iron competition versus phytate and catecholic polyphenols” value is “limited efficiency”. In addition, in data set [2], the “yield of extracted iron from vegetal food” value was “increased the yield of extracted iron from vegetal food” and the “surplus of yields of gastroactive (GA) model over gastropassive (GP) condition” value was “about 10%”. Also, the “recovery of iron and hematologic levels” value in data set [3] is “faster recovery of iron and hematologic levels”. For the same compound, the “ferritin formation in Caco-2 cells” value with Caco-2 cells is reported as “produced soluble iron utilized by enteric cells for ferritin synthesis”.
On to `Cc1occc(=O)c1O` [maltol], for which, in data set [1], the “recovery of Fe as 1:3 Fe-ligand complex in competition with non-cathecolic polyphenols (avg.)” value is reported as 95%; the “recovery of Fe as 1:3 Fe-ligand complex in competition with oxalates” value is reported as 89%; the “recovery of Fe as 1:3 Fe-ligand complex in competition with phosphate” value is given as 98%; the “iron competition versus phytate and catecholic polyphenols” value is “limited efficiency”. In data set [2], the “yield of extracted iron from vegetal food” value is “increased the yield of extracted iron from vegetal food” and the “surplus of yields of gastroactive (GA) model over gastropassive (GP) condition” value is recorded as “about 10%”. For the same compound, the “recovery of iron and hematologic levels” value in data set [3] was “faster recovery of iron and hematologic levels”. Further, the “iron solubility / phase distribution” value in data set [4] is “retain the Fe(III) solubility at supplemental levels”. Also, the “therapeutic dosage (ED50)” value in data set [5] is 140-240 mg/kg bw. For the same compound, the “ferritin formation in Caco-2 cells” value in the data set on Caco-2 cells is recorded as “produced soluble iron utilized by enteric cells for ferritin synthesis”.

(Values after patent US20200022944A1, “COMPOSITION OR MEDICAL FOOD TO EXTRACT THE DIETARY IRON AND BOOST ITS BIOAVAILABILITY FOR IRON DEFICIENCY (ID) AND ID-ANEMIA” (TIXUPHARMA DI CARLO GHISALBERTI, priority 2017, published 2020).)
